Results on 13 compounds are retold here after patent US12570648B2, “6,7-dihydro-5H-pyrido[2,3-c]pyridazine derivatives and related compounds as Bcl-xL protein inhibitors and pro-apoptotic agents for treating cancer” (LES LABORATOIRES SERVIER, priority 2019, dated 2026).

Test [1] has as its system MOLT-4 cells. In words: MOLT-4 cell viability using MTT assay. The class given is cell-based. As to conditions: 48 h exposure. As for the experimental part: MTT colorimetric assay is based on the mitochondrial reduction of tetrazolium salt by living cells.
Cells were cultured at 37° C. in a humidified atmosphere containing 5% CO2. […] At the end of incubation time, 15 μL of MTT solution (5 mg/ml) were added per well and the cells were incubated for another 4 h. […] IC50s were calculated using standard four-parametric curve fitting.
A general note: Formazan colour is commonly taken as a measure of viable cells.

Test [2] deals with His-His-(EK)-hsBCLXL(2-197)[N197C] (Homo sapiens (Human), UniProt Q07817, N197C). In words: Fluorescence quenching assay. The class given is binding. The conditions noted are these: 1 nM Cy5-labelled protein, 400 nM PUMA peptide, 2 hours at 23° C.; KI determined from IC50. In outline: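 Ki values converted from IC50s, measured as fluorescence increase (Ex 620/Em 680 nm) after 2 h at 23° C. Compounds were titrated over 11 points against 1 nM Cy5-BCL-xL and 400 nM quencher-tagged PUMA peptide in pH 7.4 HEPES (10 mM), 150 mM NaCl, 0.05% Tween 20, 5% DMSO.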
Chain of His-His-(EK)-hsBCLXL(2-197)[N197C] (Q07817 2-197 N197C): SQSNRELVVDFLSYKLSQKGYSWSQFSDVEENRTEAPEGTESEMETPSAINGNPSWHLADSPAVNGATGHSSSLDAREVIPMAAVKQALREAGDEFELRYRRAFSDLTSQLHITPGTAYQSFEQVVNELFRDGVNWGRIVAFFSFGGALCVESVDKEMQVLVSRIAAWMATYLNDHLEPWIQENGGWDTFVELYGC

pIC50, pKi: −log10 of the molar value.

As a reminder, the pIC50 is the negative decadic logarithm of the IC50, by convention in mol/L. Low values mean a high IC50, high ones a low IC50. In general, pKi refers to the negative decadic logarithm of the Ki, by convention in mol/L. `Cc1c(Nc2nc3ccccc3s2)nnc2c1CCCN2c1ccc(-c2cnn(CC34CC5(C)CC(C)(C3)CC(OCCNCCCCO)(C5)C4)c2C)c(C(=O)O)n1` [Example 132, 6-[3-(1,3-benzothiazol-2-ylamino)-4-methyl-6,7-dihydro-5H-pyrido[2,3-c]pyridazin-8-yl]-3-[1-[[3-[2-(4-hydroxybutylamino)ethoxy]-5,7-dimethyl-1-adamantyl]methyl]-5-methyl-pyrazol-4-yl]pyridine-2-carboxylic acid]: in test [1] (Homo sapiens, MOLT-4, 48 h), the pIC50 is 8.88. In addition, the pKi in test [2] was 11.70.
The matching figures for `COCCCN(C)CCOC12CC3(C)CC(C)(CC(Cn4ncc(-c5ccc(N6CCCc7c6nnc(Nc6nc8ccccc8s6)c7C)nc5C(=O)O)c4C)(C3)C1)C2` [Example 151, 6-[3-(1,3-benzothiazol-2-ylamino)-4-methyl-6,7-dihydro-5H-pyrido[2,3-c]pyridazin-8-yl]-3-[1-[[3-[2-[3-methoxypropyl(methyl)amino]ethoxy]-5,7-dimethyl-1-adamantyl]methyl]-5-methyl-pyrazol-4-yl]pyridine-2-carboxylic acid]: 10.08 and 11.82.
In test [1] (Homo sapiens, MOLT-4, 48 h), `CCNC(C)(C)C#Cc1ccc(OCCCc2sc(N3CCCc4c3nnc(Nc3nc5ccccc5s3)c4C)nc2C(=O)O)c(F)c1` [Example 102, 2-{3-[(1,3-benzothiazol-2-yl)amino]-4-methyl-6,7-dihydropyrido[2,3-c]pyridazin-8(5H)-yl}-5-(3-{4-[3-(ethylamino)-3-methylbut-1-yn-1-yl]-2-fluorophenoxy}propyl)-1,3-thiazole-4-carboxylic acid] gave a pIC50 of 9.57. Also, the pKi in test [2] is 11.35.
For the compound `Cc1c(Nc2nc3ccccc3s2)nnc2c1CCCN2c1nc(C(=O)O)c(CCCOc2ccc(C#CCN(C)CC[C@H](O)CO)cc2F)s1` [Example 148, 2-[3-(1,3-benzothiazol-2-ylamino)-4-methyl-6,7-dihydro-5H-pyrido[2,3-c]pyridazin-8-yl]-5-[3-[4-[3-[[(3S)-3,4-dihydroxybutyl]-methyl-amino]prop-1-ynyl]-2-fluoro-phenoxy]propyl]thiazole-4-carboxylic acid], the pIC50 in test [1] (Homo sapiens, MOLT-4, 48 h) was 9.56. Further, the pKi in test [2] is 11.23.
In the case of `Cc1c(Nc2nc3ccccc3s2)nnc2c1CCCN2c1ccc(-c2cnn(CC34CC5(C)CC(C)(C3)CC(OCCNCCC(O)CO)(C5)C4)c2C)c(C(=O)O)n1` (stereo in doubt) [Example 92, 6-{3-[(1,3-benzothiazol-2-yl)amino]-4-methyl-6,7-dihydropyrido[2,3-c]pyridazin-8(5H)-yl}-3-(1-{[3-(2-{[(3S)-3,4-dihydroxybutyl]amino}ethoxy)-5,7-dimethyladamantan-1-yl]methyl}-5-methyl-1H-pyrazol-4-yl)pyridine-2-carboxylic acid], the pIC50 in test [1] is 8.34. Moreover, in test [2], the pKi was 11.77.
In the case of `Cc1c(Nc2nc3ccccc3s2)nnc2c1CCCN2c1nc(C(=O)O)c(CCCOc2ccc(C#CCN(C)C)cc2)s1` [Example 141, 2-[3-(1,3-benzothiazol-2-ylamino)-4-methyl-6,7-dihydro-5H-pyrido[2,3-c]pyridazin-8-yl]-5-[3-[4-[3-(dimethylamino)prop-1-ynyl]phenoxy]propyl]thiazole-4-carboxylic acid], the pIC50 in test [1] (Homo sapiens, MOLT-4, 48 h) is 10.01. Also, in test [2], the pKi is 11.07.
Regarding `Cc1c(Nc2nc3ccccc3s2)nnc2c1CCCN2c1nc(C(=O)O)c(CCCOc2ccc(C#CCN3CCNCC3)cc2F)s1` [Example 79, 2-[3-(1,3-Benzothiazol-2-ylamino)-4-methyl-6,7-dihydro-5H-pyrido[2,3-c]pyridazin-8-yl]-5-[3-[2-fluoro-4-(3-piperazin-1-ylprop-1-ynyl)phenoxy]propyl]thiazole-4-carboxylic acid], the pIC50 in test [1] (Homo sapiens, MOLT-4, 48 h) is 9.00. In addition, in test [2], the pKi was 11.28.
For `Cc1c(Nc2nc3cccc(F)c3s2)nnc2c1CCCN2c1nc(C(=O)O)c(CCCOc2ccc(C#CCN(C)C)cc2F)s1` [Example 82, 5-[3-[4-[3-(Dimethylamino)prop-1-ynyl]-2-fluoro-phenoxy]propyl]-2-[3-[(7-fluoro-1,3-benzothiazol-2-yl)amino]-4-methyl-6,7-dihydro-5H-pyrido[2,3-c]pyridazin-8-yl]thiazole-4-carboxylic acid], in test [1] (Homo sapiens, MOLT-4, 48 h), the pIC50 is 8.92. Also, the pKi in test [2] was 10.64.
The compound `Cc1c(Nc2nc3ccccc3s2)nnc2c1CCCN2c1ccc(-c2cnn(CC34CC5(C)CC(C)(C3)CC(OCCN3CCCCCC3)(C5)C4)c2C)c(C(=O)O)n1` [Example 145, 3-[1-[[3-[2-(azepan-1-yl)ethoxy]-5,7-dimethyl-1-adamantyl]methyl]-5-methyl-pyrazol-4-yl]-6-[3-(1,3-benzothiazol-2-ylamino)-4-methyl-6,7-dihydro-5H-pyrido[2,3-c]pyridazin-8-yl]pyridine-2-carboxylic acid] gave a pIC50 in test [1] (Homo sapiens, MOLT-4, 48 h) of 9.58. For the same compound, the pKi in test [2] was 11.74.
On to `Cc1c(Nc2nc3ccccc3s2)nnc2c1CCCN2c1ccc(-c2cnn(CC34CC5(C)CC(C)(C3)CC(OCCN(C)CC[C@@H](O)CO)(C5)C4)c2C)c(C(=O)O)n1` [Example 130, 6-[3-(1,3-benzothiazol-2-ylamino)-4-methyl-6,7-dihydro-5H-pyrido[2,3-c]pyridazin-8-yl]-3-[1-[[3-[2-[[(3R)-3,4-dihydroxybutyl]-methyl-amino]ethoxy]-5,7-dimethyl-1-adamantyl]methyl]-5-methyl-pyrazol-4-yl]pyridine-2-carboxylic acid], for which the pIC50 in test [1] (Homo sapiens, MOLT-4, 48 h) was 8.71. The pKi in test [2] is 11.64.
`Cc1c(Nc2nc3ccccc3s2)nnc2c1CCCN2c1nc(C(=O)O)c(CCCOc2ccc(C34CC(CN(C)C)(C3)C4)cc2F)s1` [Example 90, 2-[3-(1,3-Benzothiazol-2-ylamino)-4-methyl-6,7-dihydro-5H-pyrido[2,3-c]pyridazin-8-yl]-5-[3-[4-[1-[(dimethylamino)methyl]-3-bicyclo[1.1.1]pentanyl]-2-fluoro-phenoxy]propyl]thiazole-4-carboxylic acid]: in test [1] (Homo sapiens, MOLT-4, 48 h), the pIC50 is 9.34. The pKi in test [2] was 11.66.
Consider `Cc1c(Nc2nc3ccccc3s2)nnc2c1CCCN2c1ccc(-c2cnn(CC34CC5(C)CC(C)(C3)CC(OCCN3CCOCC3)(C5)C4)c2C)c(C(=O)O)n1` [Example 142, 6-[3-(1,3-benzothiazol-2-ylamino)-4-methyl-6,7-dihydro-5H-pyrido[2,3-c]pyridazin-8-yl]-3-[1-[[3,5-dimethyl-7-(2-morpholinoethoxy)-1-adamantyl]methyl]-5-methyl-pyrazol-4-yl]pyridine-2-carboxylic acid], for which the pIC50 in test [1] (Homo sapiens, MOLT-4, 48 h) is 10.29. For the same compound, the pKi in test [2] was 11.59.
The compound `Cc1c(Nc2nc3ccccc3s2)nnc2c1CCCN2c1ccc(-c2cnn(CC34CC5(C)CC(C)(C3)CC(OCCN3CCCC3)(C5)C4)c2C)c(C(=O)O)n1` [Example 127, 6-[3-(1,3-benzothiazol-2-ylamino)-4-methyl-6,7-dihydro-5H-pyrido[2,3-c]pyridazin-8-yl]-3-[1-[[3,5-dimethyl-7-(2-pyrrolidin-1-ylethoxy)-1-adamantyl]methyl]-5-methyl-pyrazol-4-yl]pyridine-2-carboxylic acid] showed a pIC50 in test [1] (Homo sapiens, MOLT-4, 48 h) of 9.86. In addition, in test [2], the pKi is 11.68.
